# Data as given in patent US20250170281A1, “ANTI-CANCER TREATMENT WITH A RADIOACTIVE PARP INHIBITOR” (The Chancellor, Masters and Scholars of the University of …, priority 2022, published 2025).
# “Also recorded” adds a separate entry of the source.
# Key:
# [1] = molecular target: PARP6 (Homo sapiens, UniProt Q2NL67); experiment: PARP family enzymatic activity screening at 10 nM (BPS assay kits); conditions: lesser degree than olaparib, rucaparib and other established PARP inhibitors
# [2] = system: U87MG cells; experiment: Colony formation assay; type: cell-based, Human; conditions: for effect on clonogenic survival: cold compounds at amounts equivalent to [123I]CC1
# Experimental: (§1) Separate aliquots of cells were irradiated (0-10 Gy, using a ^137Cs irradiator, 0.8 Gy/min). Cells were then washed, a fraction of which was then transferred to 6-well plates containing 2 mL of growth medium, and colony formation was measured two weeks after treatment. Colony numbers were normalized to the number of cells transferred to the plates to obtain plating efficiency, which was in turn normalized to that of untreated cells.
# (§2) Following the protocol outlined in part A hereinbefore, colony formation assays were conducted on aliquots of PSN1, U87MG and MDA-MB-231 cells.
# [3] = system: PSN1 cells; experiment: Colony formation assay; type: cell-based; conditions: for effect on clonogenic survival: PSN1, cold compounds at amounts equivalent to [123I]CC1
# Experimental: as §1, §2
# [4] = system: MDA-MB-231 xenografts; experiment: Biodistribution of [123I]CC1 in xenograft-bearing mice; type: in vivo; conditions: 2 h after i.v. 3 MBq
# Experimental: (§3) Following the protocol described in part A hereinbefore, PSN1, U87MG, or MDA-MB-231 cells were harvested using trypsin, washed twice with PBS, and reconstituted in PBS: Matrigel® Matrix High Concentration (1:1). Cell suspensions were injected subcutaneously in the hind right flank and allowed to form tumours. […] To evaluate the specificity of tumour uptake, an excess of unlabelled rucaparib (0.5 mg) was co-administered as a blocking agent in some animals. Either 60 or 120 min after radiolabelled compound injection, animals were euthanised (n=3 per group). Selected organs, tissues and blood were removed, and the percentage of the injected activity per gram of tissue (% IA/g) was determined, using a HIDEX automated gammacounter.
# [5] = system: U87MG xenografts; experiment: as above; type: in vivo; conditions: 2 h after i.v. 3 MBq
# Experimental: as §3
# [6] = system: U87MG cells; experiment: Flow cytometry of nuclear protein expression post [123I]CC1 treatment; type: cell-based, Human; conditions: 24 h after 1-hour exposure, 50 kBq
# Experimental: (§4) AsPC1, PSN1 or U87MG (1×10^6 cells/well in 2 mL growth medium) were seeded in 6-well plates and allowed to adhere for at least 20 h. […] Cells were harvested using trypsin-EDTA solution and washed with FACS buffer (PBS, 2% FBS, 1 mM EDTA, 0.1% NaN3) and centrifuged at 500×g for 5 min. Immunostaining was performed using the Foxp3/transcription factor staining buffer set (eBioscience™, USA). Intracellular staining was conducted in permeabilization buffer for 30 min at 4° C. in the dark using the following antibodies separately: AF488-conjugated anti-PARP-1 (1:100; sc-80070), AF594-conjugated anti-PARP-2 (1:100; sc-393310) and AF488-conjugated anti-PARP-3 (1:100; sc-390771) from Santa Cruz Biotechnology Inc. (USA), AF488-conjugated anti-IMPDH2 (1:500; ab-200770) from Abcam plc. (UK), yH2AX (1:1000; JBW301 Merck-Millipore). Fixable viability dye ef780 (1:4000; eBioscience™; 65-0865-14) was used for live/dead discrimination. Fixation of immunostained cells was performed for 15 min at RT. Flow cytometry was conducted using a CytoFLEX flow cytometer (Beckman Coulter, USA), with appropriate laser and filters, positive and negative controls. Data were analyzed using FlowJo™ (Tree Star Inc., BD Biosciences, USA).
# (§5) Quantification of AsPC1, PSN1 or U87MG cells was conducted following the protocol outlined in part A hereinbefore. Relative expression of PARP1 and 2 was measured using flow cytometry. γH2AX expression, as a measure for DNA double strand break damage, was assessed in a similar manner.
# [7] = system: MDA-MB-231 xenografts; experiment: In vivo therapy study; parameters: species or system mice; conditions: single i.v. 3 MBq
# Experimental: (§6) Mice were monitored daily. Tumour sizes were determined by calliper. Study endpoints were based on humane endpoints, including a tumour size >1000 mm^3, or weight loss >15%.
# [8] = system: U87MG xenografts; experiment: In vivo therapy study; parameters: species or system mice; conditions: single i.v. 3 MBq
# Experimental: as §6
# [9] = system: PSN1 xenografts; experiment: Biodistribution of [123I]CC1 in xenograft-bearing mice; type: in vivo; conditions: for tumour uptake: 1 h after i.v. 3 MBq
# Experimental: PSN1 cells were harvested using trypsin, washed twice with PBS, and reconstituted in PBS: Matrigel® Matrix High Concentration (1:1). Cell suspensions (PSN1: 2×10^6 […]) were injected subcutaneously in the front right flank of the mice, and allowed to grow to a size of approximately 200 mm^3.
# To evaluate the specificity of tumour uptake, an excess of unlabelled rucaparib (0.5 mg) was co-administered as blocking agent. Either after 60 or 120 min after radiolabelled compound injection, animals were euthanised. Selected organs, tissues and blood were removed, and the percentage of the injected dose per gram of tissue (% ID/g) was determined, using a HIDEX automated gammacounter.
# as §3
# [10] = Toxicology: H&E staining of normal tissues; type: in vivo, C57/Bl6 mice; conditions: 3 MBq i.v.
# Description: Liver, spleen, kidneys and intestines were investigated by an experienced veterinary pathologist and compared to age-matched non-treated control animals.
# Tissues were further stained for γH2AX to investigate DNA double strand break damage, and livers were additionally stained for PAS, as a marker for glycogen storage.
# [11] = system: U87MG cells; experiment: In vitro uptake and specificity of [123I]CC1; type: cell-based, Human; conditions: for uptake of [123I]CC1 on addition of cold blocker: blocker 100 μM, 45 min before tracer
# Experimental: (§7) AsPC1 (1×10^5 cells/well), PSN1 cells (7.5×10^4 cells/well) or U87MG (1×10^5 cells/well) were seeded separately in 24-well plates containing growth medium and allowed to adhere for at least 20 h. Cells were washed and exposed to cold, unlabelled PARP inhibitors (100 μM, in a total of 270 μL growth medium) for 45 min at 37° C. […] Cell culture medium was removed, and cells washed with PBS. Cells were lysed using RIPA buffer ([…] Tris pH 8.0, 1% NP40, 0.5% sodium deoxycholate, 0.1% sodium dodecyl sulphate, and 150 mM sodium chloride) for 15 min at room temperature, and the amount of ^123I in cell lysates was measured using an automated gamma counter (PerkinElmer). […] The amount of ^123I in cell lysates was measured as above.
# (§8) AsPC1 (1×10^5 cells/well), PSN1 (7.5×10^4 cells/well) or U87MG (1×10^5 cells/well) were seeded as described in part A hereinbefore. CAPAN-1 cells (7.5×10^4 cells/well) were seeded following the same protocol described in part A hereinbefore.
# [12] = system: PSN1 xenografts; experiment: In vivo therapy study; conditions: single i.v. 3 MBq
# Experimental: […]. Mice and tumour sizes were monitored daily. Study endpoint was determined based humane endpoints, including a tumour size >1200 mm^3, or weight loss >15%.
# […]. Mice were monitored daily. Tumour sizes were determined by calliper. Study endpoints were based on humane endpoints, including a tumour size >1000 mm^3, or weight loss >15%.
# [13] = system: AsPC1 cells; experiment: Flow cytometry of nuclear protein expression post [123I]CC1 treatment; type: cell-based; conditions: 50 kBq
# Experimental: as §4, §5
# [14] = system: PSN1 cells; experiment: as above; type: cell-based; conditions: PSN1, 24 h after 1-hour exposure, 50 kBq
# Experimental: as §4, §5
# [15] = Blood clearance by VOI analysis of dynamic imaging; type: in vivo; conditions: PSN1 xenograft-bearing mice, i.v. 3 MBq; CI95 1.64-2.09 min
# Experimental: Images were analysed using VOI-based analysis, using PMOD.
# In a selected number of animals (n=3), animals were anaesthetised using 2% isoflurane, and dynamic SPECT/CT imaging was performed over 1 h, using a MILabs VECTor4 camera, equipped with an ultra-high-resolution rat/mouse collimator (1.8 mm), followed by a cone-beam CT scan (55 kV, 0.19 mA) for anatomical reference and attenuation correction. Anesthesia was maintained using 2.5% isoflurane throughout the duration of image acquisition. SPECT images were reconstructed using U-SPECT-Rec3.22 software (MILabs, Utrecht, The Netherlands), applying a pixel-based algorithm, ordered subset expectation maximisation (OSEM) with 4 subsets, 4 iterations and 0.6 mm voxel size for lodine-123 (energy window settings 141.3-172.7 keV). Reconstructed SPECT and CT images were viewed and analyzed using PMOD v.3.37 (PMOD Technologies, Zurich, Switzerland).
# [16] = system: AsPC1 cells; experiment: In vitro uptake and specificity of [123I]CC1; type: cell-based; conditions: for uptake of [123I]CC1 on addition of cold blocker: AsPC1, blocker 100 μM, 45 min before tracer
# Experimental: as §7, §8
# [17] = system: PSN1 cells; experiment: In vitro uptake and specificity of [123I]CC1; type: cell-based; conditions: for uptake of [123I]CC1 on addition of cold blocker: PSN1, blocker 100 μM, 45 min before tracer
# Experimental: as §7, §8
# [18] = AsPC1, 24 h after 1-hour exposure
# Chain of PARP6 (Q2NL67 whole entry): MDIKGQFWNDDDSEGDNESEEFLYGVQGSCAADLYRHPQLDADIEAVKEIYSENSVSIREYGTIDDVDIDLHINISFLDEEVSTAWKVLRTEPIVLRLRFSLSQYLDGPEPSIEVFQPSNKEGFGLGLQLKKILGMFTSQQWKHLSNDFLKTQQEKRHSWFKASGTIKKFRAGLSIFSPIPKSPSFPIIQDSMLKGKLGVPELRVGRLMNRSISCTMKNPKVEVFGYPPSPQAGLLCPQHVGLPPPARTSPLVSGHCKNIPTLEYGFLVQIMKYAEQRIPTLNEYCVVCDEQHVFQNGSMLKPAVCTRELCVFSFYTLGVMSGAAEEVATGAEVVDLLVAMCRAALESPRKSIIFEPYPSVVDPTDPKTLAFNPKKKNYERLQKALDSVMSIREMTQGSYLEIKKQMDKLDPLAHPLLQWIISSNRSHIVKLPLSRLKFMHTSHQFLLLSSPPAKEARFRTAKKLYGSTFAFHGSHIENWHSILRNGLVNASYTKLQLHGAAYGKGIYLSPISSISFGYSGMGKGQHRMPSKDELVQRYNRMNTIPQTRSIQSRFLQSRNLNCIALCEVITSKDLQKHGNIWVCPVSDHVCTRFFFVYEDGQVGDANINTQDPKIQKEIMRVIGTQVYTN
smiles,measurement,setting,value
O=C(c1cc(Cc2n[nH]c(=O)c3ccccc23)ccc1[123I])N1CCN(C(=O)C2CC2)CC1 [CC1],inhibition of PARP6 catalytic activity by a single dose,[1],able to inhibit
same,effect on clonogenic survival,[2],no effect
same,effect on clonogenic survival,[3],no effect
O=C(c1cc(Cc2n[nH]c(=O)c3ccccc23)ccc1[123I])N1CCN(C(=O)C2CC2)CC1 [[^123I]CC1],tumour uptake,[4],0.19±0.01 % IA/g
same,tumour uptake,[5],0.46±0.01 % IA/g
same,PARP1 expression,[6],increased expression
same,PARP2 expression,[6],increased expression
same,γH2AX expression (DNA double strand breaks),[6],increased significantly; also recorded: increased markedly
same,tumour growth response,[7],not affected in their growth
same,tumour growth response,[8],responded less than PSN-1 xenografts
same,clearance pattern (high uptake in liver and intestines),"[9]; PSN1 xenograft-bearing mice, 3 MBq, 20 GBq/μmol",hepatobiliary clearance pattern
same,tumour uptake,"[9]; PSN-1 xenografts, Part A",0.9±0.06 % ID/g
same,tumour uptake,"[9]; PSN-1 xenografts, Part B",0.9±0.06 % IA/g
same,amount remaining in tumour,"[9]; PSN-1 xenografts, 24 h after injection",0.033±0.017 % IA/g
same,amount from which clonogenic survival is significantly reduced,[2]; 1 h exposure,≥ 10 Bq
same,clonogenic survival IC50,"[2]; in 200 μl, 60 min exposure",631±35 Bq
same,shrunken (pyknotic) hepatocytes in liver,[10],0.1-0.2 per field
same,"histopathology, intestines",[10]; 24 h and 28 days,minimal proprial infiltration by lymphocytes and plasma cells
same,"histopathology, kidneys",[10]; 24 h and 28 days,no observable changes
same,"histopathology, liver: the one marked effect",[10]; 24 h and 28 days,diffuse cytoplasmic pallor/rarefaction
same,"histopathology, spleen",[10]; 24 h and 28 days,mild to moderate numbers of hemosiderophages
same,time at which cell uptake plateaus,[11]; 37° C.,1 h
same,cell uptake,[11]; Part B,around 0.3 fmol/cell
same,clonogenic survival IC50,"[3]; PSN1, 60 min exposure",1 kBq/mL
same,effect on clonogenic survival,[3],far less pronounced
same,tumour growth,"[12]; PSN1 xenografts, vs cold unlabelled CC1, p=0.04",significant inhibition of tumour growth
same,gross toxicity (weight loss of the mice),[12],without signs of gross toxicity
same,PARP1 expression,[13]; [18],increased expression
same,PARP2 expression,[13]; [18],increased expression
same,γH2AX expression (DNA double strand breaks),"[13]; AsPC1, 24 h after exposure",increased significantly
same,PARP1 expression,[14],increased expression
same,PARP2 expression,[14],increased expression
same,γH2AX expression (DNA double strand breaks),[14],increased significantly; also recorded: increased markedly
same,"blood clearance, weighed half-life",[15],1.86 min
same,time at which cell uptake plateaus,"[16]; AsPC1, 37° C.",1 h
same,cell uptake,"[16]; AsPC1, Part B",around 0.3 fmol/cell
same,time at which cell uptake plateaus,"[17]; PSN1, 37° C.",1 h
same,cell uptake,"[17]; PSN1, Part B",around 0.3 fmol/cell
"O=c1c(-c2ccc(O)cc2)coc2cc(O[C@@H]3O[C@H](CO)[C@@H](O)[C@H](O)[C@H]3O)ccc12 [daidzin, reference compound]",uptake of [123I]CC1 on addition of cold blocker,[11],reduced
same,uptake of [123I]CC1 on addition of cold blocker,[16],reduced
same,uptake of [123I]CC1 on addition of cold blocker,[17],reduced
"COc1c(C)c2c(c(O)c1C/C=C(\C)CCC(=O)OCCN1CCOCC1)C(=O)OC2 [m.mofetil, Mycophenolate mofetil, reference compound]",uptake of [123I]CC1 on addition of cold blocker,[11],reduced
same,uptake of [123I]CC1 on addition of cold blocker,[16],reduced
same,uptake of [123I]CC1 on addition of cold blocker,[17],reduced
"O=C(c1cc(Cc2n[nH]c(=O)c3ccccc23)ccc1F)N1CCN(C(=O)C2CC2)CC1 [olaparib, reference compound]",effect on clonogenic survival,[2],no effect
same,effect on clonogenic survival,[3],no effect
"CNCc1ccc(-c2[nH]c3cc(F)cc4c3c2CCNC4=O)cc1 [rucaparib, reference compound]",tumour uptake of [123I]CC1 on co-administration of excess blocker,"[9]; PSN1 xenografts, 0.5 mg blocker, 2 h, P<0.05",significantly reduced tumour uptake
